The record followed here is patent US9840498B2, “Substituted quinazolin-4-one derivatives” (NOVARTIS AG, priority 2013, dated 2017).

In assay [1] the target is PI3K alpha (Homo sapiens (Human), UniProt P42336). Nature of the assay: Biochemical assay for PI3Kalpha (Kinase-Glo format). To be noted: enzymatic assay. The procedure: 1.1 Generation of Gene Constructs, Protein Expression and Purification
For the enzymatic assays, the preparation of PI3K gene constructs, protein expression and purification for HTS are described in WO2012/004299.
1.2 Biochemical Assays for PI3Kalpha, PI3Kbeta (Kinase-Glo Format)
The kinase reaction is performed in a final volume of 50 μl per well of a half area COSTAR, 96 well plate. The final concentrations of ATP and phosphatidyl inositol in the assay are 5 μM and 6 μg/mL, respectively. The reaction is started by the addition of PI3 kinase, e.g. PI3 kinase α.
The components of the assay are added per well as follows: • 10 μl test compound in 5% DMSO per well in […]. • Total activity is determined by addition 10 μl of 5% vol/vol DMSO in the first 4 wells of column 1 and the last 4 wells of column 12. • The background is determined by addition of 10 μM control compound to the last 4 wells of column 1 and the first 4 wells of column 12. • 2 mL ‘Assay mix’ are prepared per plate: • 1.912 mL of HEPES assay buffer • 8.33 μl of 3 mM stock of ATP giving a final concentration of 5 μM per well • 1 μl of [^33P]ATP on the activity date giving 0.05 μCi per well • 30 μl of 1 mg/mL PI stock giving a final concentration of 6 μg/mL per well • 5 μl of 1 M stock MgCl2 giving a final concentration of 1 mM per well • 20 μl of the assay mix are added per well. • 2 mL ‘Enzyme mix’ are prepared per plate (x* μl PI3 kinase p110α in 2 mL of kinase buffer). The ‘Enzyme mix’ is kept on ice during addition to the assay plates. * The volume of enzyme is dependent on the enzymatic activity of the batch in use. • 20 μl ‘Enzyme mix’ are added/well to start the reaction. • The plate is then incubated at room temperature for 90 minutes. • The reaction is terminated by the addition of 50 μl WGA-SPA bead (wheat germ agglutinin-coated Scintillation Proximity Assay beads) suspension per well. • The assay plate is sealed using TopSeal-S (heat seal for polystyrene microplates, PerkinElmer LAS [Deutschland] GmbH, Rodgau, Germany) and incubated at room temperature for at least 60 minutes. • The assay plate is then centrifuged at 1500 rpm for 2 minutes using the Jouan bench top centrifuge (Jouan Inc., Nantes, France). • The assay plate is counted using a Packard TopCount, each well being counted for 20 seconds.
In a more preferred assay, the kinase reaction is performed in a final volume of 10 μl per well of a low volume non-binding CORNING, 384 well black plate (Cat. No. #3676). The final concentrations of ATP and phosphatidyl inositol (PI) in the assay are 1 μM and 10 μg/mL, respectively. The reaction is started by the addition of ATP.
The components of the assay are added per well as follows: […]
For orientation: Kinase-Glo reads ATP consumption through a luciferase reaction.

Assay [2] concerns the target human phosphoinositide-3 kinase (PI3K) alpha (Homo sapiens (Human), UniProt P42336). The assay can be described thus: PI3K-mediated Akt 1/2 (S473) phosphorylation in Rat-1 cells overexpressing PI3K alpha. It is filed as cell-based, rat cells expressing human PI3K alpha. As to conditions: cellular assay, p-AKT(Ser473), read-out: Cell PI3K alpha IC50.

Chain of PI3K alpha (P42336 21-1068): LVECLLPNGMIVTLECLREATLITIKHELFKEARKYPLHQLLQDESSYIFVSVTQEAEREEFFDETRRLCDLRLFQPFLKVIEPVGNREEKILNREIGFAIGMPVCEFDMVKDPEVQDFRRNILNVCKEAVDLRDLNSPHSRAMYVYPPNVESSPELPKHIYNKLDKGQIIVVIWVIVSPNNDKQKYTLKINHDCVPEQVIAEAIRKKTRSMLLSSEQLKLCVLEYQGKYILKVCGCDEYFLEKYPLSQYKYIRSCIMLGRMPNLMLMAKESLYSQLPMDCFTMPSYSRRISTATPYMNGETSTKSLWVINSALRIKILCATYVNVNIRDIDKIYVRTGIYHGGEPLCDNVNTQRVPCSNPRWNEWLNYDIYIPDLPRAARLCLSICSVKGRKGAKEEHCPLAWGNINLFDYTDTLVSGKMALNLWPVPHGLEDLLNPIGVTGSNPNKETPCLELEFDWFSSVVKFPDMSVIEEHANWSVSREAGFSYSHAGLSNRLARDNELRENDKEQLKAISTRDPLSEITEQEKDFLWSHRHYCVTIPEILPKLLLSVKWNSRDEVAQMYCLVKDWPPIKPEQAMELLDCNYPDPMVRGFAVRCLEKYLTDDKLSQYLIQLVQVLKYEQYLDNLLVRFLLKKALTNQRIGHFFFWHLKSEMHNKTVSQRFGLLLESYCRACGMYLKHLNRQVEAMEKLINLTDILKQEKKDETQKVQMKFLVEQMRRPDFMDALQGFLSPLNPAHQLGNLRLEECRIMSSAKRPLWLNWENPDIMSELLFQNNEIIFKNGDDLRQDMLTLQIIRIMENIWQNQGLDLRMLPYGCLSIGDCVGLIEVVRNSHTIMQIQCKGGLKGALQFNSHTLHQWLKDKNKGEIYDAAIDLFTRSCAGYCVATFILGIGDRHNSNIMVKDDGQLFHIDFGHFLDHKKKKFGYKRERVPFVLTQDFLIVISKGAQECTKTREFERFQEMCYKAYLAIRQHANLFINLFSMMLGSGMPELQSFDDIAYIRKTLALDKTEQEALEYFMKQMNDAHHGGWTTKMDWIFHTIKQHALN
Chain of PI3K alpha (P27986 461-568 partner): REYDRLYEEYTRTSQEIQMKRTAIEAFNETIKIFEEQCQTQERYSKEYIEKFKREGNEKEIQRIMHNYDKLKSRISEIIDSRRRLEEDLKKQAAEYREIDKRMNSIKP
Chain of human phosphoinositide-3 kinase (PI3K) alpha (P42336 whole entry): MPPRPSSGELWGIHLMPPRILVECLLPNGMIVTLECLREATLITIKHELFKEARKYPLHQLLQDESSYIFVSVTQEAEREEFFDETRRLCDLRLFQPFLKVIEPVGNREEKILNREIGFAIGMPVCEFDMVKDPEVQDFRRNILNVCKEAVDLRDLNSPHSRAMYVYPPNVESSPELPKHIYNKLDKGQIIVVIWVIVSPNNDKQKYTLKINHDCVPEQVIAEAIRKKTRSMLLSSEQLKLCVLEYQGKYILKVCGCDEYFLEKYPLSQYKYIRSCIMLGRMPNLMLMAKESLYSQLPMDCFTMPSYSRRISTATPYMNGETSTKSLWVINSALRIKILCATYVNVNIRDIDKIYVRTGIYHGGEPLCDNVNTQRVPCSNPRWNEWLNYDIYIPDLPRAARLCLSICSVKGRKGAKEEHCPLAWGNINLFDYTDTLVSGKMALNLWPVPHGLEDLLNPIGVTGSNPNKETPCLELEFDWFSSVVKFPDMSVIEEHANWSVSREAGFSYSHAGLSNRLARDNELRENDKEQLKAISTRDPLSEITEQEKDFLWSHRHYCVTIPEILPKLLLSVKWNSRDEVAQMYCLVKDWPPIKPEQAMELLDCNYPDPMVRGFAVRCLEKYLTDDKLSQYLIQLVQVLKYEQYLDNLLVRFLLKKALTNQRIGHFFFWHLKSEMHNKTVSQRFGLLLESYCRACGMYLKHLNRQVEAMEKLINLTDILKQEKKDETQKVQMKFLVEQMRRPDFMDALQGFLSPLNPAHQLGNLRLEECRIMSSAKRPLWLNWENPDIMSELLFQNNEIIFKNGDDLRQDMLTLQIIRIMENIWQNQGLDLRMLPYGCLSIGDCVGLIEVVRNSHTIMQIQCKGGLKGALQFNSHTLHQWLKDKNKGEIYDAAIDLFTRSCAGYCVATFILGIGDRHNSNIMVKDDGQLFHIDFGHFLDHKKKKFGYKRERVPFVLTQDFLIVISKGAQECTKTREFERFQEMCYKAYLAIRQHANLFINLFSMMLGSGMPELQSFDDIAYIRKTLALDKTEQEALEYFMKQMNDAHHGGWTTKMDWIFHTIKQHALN
Chain of human phosphoinositide-3 kinase (PI3K) alpha (Q63787 whole entry partner): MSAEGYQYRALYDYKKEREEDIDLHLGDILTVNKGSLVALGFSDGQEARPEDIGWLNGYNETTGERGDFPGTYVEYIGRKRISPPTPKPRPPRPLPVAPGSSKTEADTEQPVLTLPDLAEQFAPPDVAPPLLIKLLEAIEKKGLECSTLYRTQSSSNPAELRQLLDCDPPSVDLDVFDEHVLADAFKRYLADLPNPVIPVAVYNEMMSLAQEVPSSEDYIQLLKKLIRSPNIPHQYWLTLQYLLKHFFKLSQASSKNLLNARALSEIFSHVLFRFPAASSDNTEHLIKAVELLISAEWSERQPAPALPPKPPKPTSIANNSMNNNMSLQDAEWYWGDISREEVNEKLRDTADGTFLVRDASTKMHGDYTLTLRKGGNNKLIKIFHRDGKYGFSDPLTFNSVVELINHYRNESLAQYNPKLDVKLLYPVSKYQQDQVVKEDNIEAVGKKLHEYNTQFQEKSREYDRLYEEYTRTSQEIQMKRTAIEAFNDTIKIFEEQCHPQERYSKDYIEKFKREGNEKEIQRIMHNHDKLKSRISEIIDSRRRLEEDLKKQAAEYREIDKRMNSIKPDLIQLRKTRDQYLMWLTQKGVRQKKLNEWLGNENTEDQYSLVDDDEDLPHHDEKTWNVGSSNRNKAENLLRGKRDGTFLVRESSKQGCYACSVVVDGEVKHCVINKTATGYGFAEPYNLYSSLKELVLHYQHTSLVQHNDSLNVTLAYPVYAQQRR

Turning to `Cc1nc(N)nc(N2C[C@@H](O)C[C@H]2c2nc3cccc(-c4cnn(CCO)c4)c3c(=O)n2-c2ccccc2)c1C#N` [Example 28, 2-Amino-4-((2S,4S)-4-hydroxy-2-(5-(1-(2-hydroxyethyl)-1H-pyrazol-4-yl)-4-oxo-3-phenyl-3,4-dihydroquinazolin-2-yl)pyrrolidin-1-yl)-6-methylpyrimidine-5-carbonitrile], the IC50 (as a rule, the point on the concentration scale where inhibition reaches its midpoint) in assay [1] is 240 nM; in assay [2], > 10000 nM.
With `CCOc1ncc(-c2c(F)ccc3nc([C@@H]4C[C@H](O)CN4c4nc(N)nc(C)c4C#N)n(-c4ccccc4)c(=O)c23)cn1` [Example 29, 2-Amino-4-((2S,4S)-2-(5-(2-ethoxypyrimidin-5-yl)-6-fluoro-4-oxo-3-phenyl-3,4-dihydroquinazolin-2-yl)-4-hydroxypyrrolidin-1-yl)-6-methylpyrimidine-5-carbonitrile], the results for the IC50 in assay [1] and in assay [2] were 370 nM and 2700 nM, respectively.
For `Cc1nc(N)nc(N2C[C@@H](F)C[C@H]2c2nc3cccc(-c4cnn(C)c4)c3c(=O)n2-c2ccccc2)c1C#N` [Example 30, 2-Amino-4-((2S,4S)-4-fluoro-2-(5-(1-methyl-1H-pyrazol-4-yl)-4-oxo-3-phenyl-3,4-dihydroquinazolin-2-yl)pyrrolidin-1-yl)-6-methylpyrimidine-5-carbonitrile], the half-maximal inhibitory concentration (IC50) is 450 nM in assay [1] and 2300 nM in assay [2].
Turning to `Cc1nc(N)nc(N2C[C@@H](O)C[C@H]2c2nc3ccc(F)c(-c4cn(C)cn4)c3c(=O)n2-c2ccccc2)c1C#N` [Example 31, 2-Amino-4-((2S,4S)-2-(6-fluoro-5-(1-methyl-1H-imidazol-4-yl)-4-oxo-3-phenyl-3,4-dihydroquinazolin-2-yl)-4-hydroxypyrrolidin-1-yl)-6-methylpyrimidine-5-carbonitrile], the IC50 in assay [1] is 570 nM; in assay [2], > 10000 nM.
The matching figures for `CCOc1ncc(-c2cccc3nc([C@@H]4CCCN4c4nc(N)nc(C)c4C#N)n(-c4ccccc4)c(=O)c23)cn1` [Example 32, (S)-2-Amino-4-(2-(5-(2-ethoxypyrimidin-5-yl)-4-oxo-3-phenyl-3,4-dihydroquinazolin-2-yl)pyrrolidin-1-yl)-6-methylpyrimidine-5-carbonitrile]: 490 nM and 2400 nM.
Turning to `N#Cc1c(N)ncnc1N1CCC[C@H]1c1nc2cccc(C#CCO)c2c(=O)n1-c1ccccc1` [Example 33, (S)-4-Amino-6-(2-(5-(3-hydroxyprop-1-yn-1-yl)-4-oxo-3-phenyl-3,4-dihydroquinazolin-2-yl)pyrrolidin-1-yl)pyrimidine-5-carbonitrile], the IC50 is 620 nM in assay [1] and 6500 nM in assay [2].
